# Measured values taken from patent publication US9738634B2, “Heterocyclic amide compound and herbicide” (SYNGENTA PARTICIPATIONS AG, priority 2013, dated 2017).
# Key:
# Format in all cases: in vivo
# Conditions in all cases: treatment dosage 320 g/ha
# barnyard grass [1] = assay: Test Example 1: weedkilling efficacy, preemergent weed treatment in the submerged state; A: barnyard grass
# In short: (§1)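 Visual scores against set criteria were taken 3 weeks after treatment. Compounds, as diluted emulsions at specified g/ha, went onto the water surface of 4 cm-flooded alluvial soil pots on the day weeds were sown and 2.5-leaf rice was transplanted; greenhouse held 25–30 °C.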
# bulrush [2] = assay: Test Example 1: weedkilling efficacy, preemergent weed treatment in the submerged state; B: bulrush
# In short: as §1
# oval-leafed pondweed [3] = assay: Test Example 1: weedkilling efficacy, preemergent weed treatment in the submerged state; C: oval-leafed pondweed
# In short: as §1
# transplanted rice = assay: Test Example 1: preemergent weed treatment in the submerged state, effect on crop; a: transplanted rice
# In short: as §1
# barnyard grass [4] = assay: Test Example 2: weedkilling efficacy, growth period weed treatment in the submerged state; A: barnyard grass
# In short: (§2)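 Barnyard grass, bulrush and oval-leafed pondweed sown in alluvial soil under 4 cm flooding, greenhouse 25 to 30° C. At 1-2 leaf stage, water-diluted emulsion applied to the water surface at stated g/ha dosages; effects scored 3 weeks later.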
# bulrush [5] = assay: Test Example 2: weedkilling efficacy, growth period weed treatment in the submerged state; B: bulrush
# In short: as §2
# oval-leafed pondweed [6] = assay: Test Example 2: weedkilling efficacy, growth period weed treatment in the submerged state; C: oval-leafed pondweed
# In short: as §2
# crabgrass [7] = assay: Test Example 3: weedkilling efficacy through soil treatment; D: crabgrass
# In short: (§3)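 Crop and weed responses were judged three weeks after a uniform surface spray of the water-diluted emulsion at the given g/ha rate. Seeds sat beneath about 1.5 cm of sterilized diluvial soil, and boxes stood in a greenhouse at 25 to 30° C.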
# green foxtail [8] = assay: Test Example 3: weedkilling efficacy through soil treatment; E: green foxtail
# In short: as §3
# barnyard grass [9] = assay: Test Example 3: weedkilling efficacy through soil treatment; F: barnyard grass
# In short: as §3
# wild oat [10] = assay: Test Example 3: weedkilling efficacy through soil treatment; G: wild oat
# In short: as §3
# black-grass [11] = assay: Test Example 3: weedkilling efficacy through soil treatment; H: black-grass
# In short: as §3
# Italian ryegrass [12] = assay: Test Example 3: weedkilling efficacy through soil treatment; I: Italian ryegrass
# In short: as §3
# common wind-grass [13] = assay: Test Example 3: weedkilling efficacy through soil treatment; J: common wind-grass
# In short: as §3
# Indian mallow [14] = assay: Test Example 3: weedkilling efficacy through soil treatment; K: Indian mallow
# In short: as §3
# redroot pigweed [15] = assay: Test Example 3: weedkilling efficacy through soil treatment; L: redroot pigweed
# In short: as §3
# fig-leafed goosefoot [16] = assay: Test Example 3: weedkilling efficacy through soil treatment; M: fig-leafed goosefoot
# In short: as §3
# chickweed [17] = assay: Test Example 3: weedkilling efficacy through soil treatment; N: chickweed
# In short: as §3
# birds-eye speedwell [18] = assay: Test Example 3: weedkilling efficacy through soil treatment; p: birds-eye speedwell
# In short: as §3
# directly sown rice [19] = assay: Test Example 3: soil treatment, effect on crop; b: directly sown rice
# In short: as §3
# corn [20] = assay: Test Example 3: soil treatment, effect on crop; c: corn
# In short: as §3
# soybean [21] = assay: Test Example 3: soil treatment, effect on crop; d: soybean
# In short: as §3
# wheat [22] = assay: Test Example 3: soil treatment, effect on crop; e: wheat
# In short: as §3
# beet [23] = assay: Test Example 3: soil treatment, effect on crop; f: beet
# In short: as §3
# rapeseed [24] = assay: Test Example 3: soil treatment, effect on crop; g: rapeseed
# In short: as §3
# crabgrass [25] = assay: Test Example 4: weedkilling efficacy by foliar treatment; D: crabgrass
# In short: (§4)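 Seeds are spot-sown into sterilized diluvial soil and covered with about 1.5 cm of soil. After 14 days' greenhouse growth at 25 to 30° C, plants are sprayed on stems and leaves with diluted emulsion at the stated g/ha rate, then scored at 3 weeks.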
# green foxtail [26] = assay: Test Example 4: weedkilling efficacy by foliar treatment; E: green foxtail
# In short: as §4
# barnyard grass [27] = assay: Test Example 4: weedkilling efficacy by foliar treatment; F: barnyard grass
# In short: as §4
# wild oat [28] = assay: Test Example 4: weedkilling efficacy by foliar treatment; G: wild oat
# In short: as §4
# black-grass [29] = assay: Test Example 4: weedkilling efficacy by foliar treatment; H: black-grass
# In short: as §4
# Italian ryegrass [30] = assay: Test Example 4: weedkilling efficacy by foliar treatment; I: Italian ryegrass
# In short: as §4
# common wind-grass [31] = assay: Test Example 4: weedkilling efficacy by foliar treatment; J: common wind-grass
# In short: as §4
# Indian mallow [32] = assay: Test Example 4: weedkilling efficacy by foliar treatment; K: Indian mallow
# In short: as §4
# redroot pigweed [33] = assay: Test Example 4: weedkilling efficacy by foliar treatment; L: redroot pigweed
# In short: as §4
# fig-leafed goosefoot [34] = assay: Test Example 4: weedkilling efficacy by foliar treatment; M: fig-leafed goosefoot
# In short: as §4
# chickweed [35] = assay: Test Example 4: weedkilling efficacy by foliar treatment; N: chickweed
# In short: as §4
# catchweed = assay: Test Example 4: weedkilling efficacy by foliar treatment; O: catchweed
# In short: as §4
# birds-eye speedwell [36] = assay: Test Example 4: weedkilling efficacy by foliar treatment; p: birds-eye speedwell
# In short: as §4
# directly sown rice [37] = assay: Test Example 4: foliar treatment, effect on crop; b: directly sown rice
# In short: as §4
# corn [38] = assay: Test Example 4: foliar treatment, effect on crop; c: corn
# In short: as §4
# soybean [39] = assay: Test Example 4: foliar treatment, effect on crop; d: soybean
# In short: as §4
# wheat [40] = assay: Test Example 4: foliar treatment, effect on crop; e: wheat
# In short: as §4
# beet [41] = assay: Test Example 4: foliar treatment, effect on crop; f: beet
# In short: as §4
# rapeseed [42] = assay: Test Example 4: foliar treatment, effect on crop; g: rapeseed
# In short: as §4
smiles,measurement,setting,value
CC1=C(c2ccccc2)C(=O)N(C(C)(C)C(=O)Nc2cc(Cl)cc(C)n2)CO1 [B-2-42],A (barnyard grass) weedkilling efficacy grade,barnyard grass [1],"5 (weed kill ratio 90% or more, (practically complete withering))"
same,B (bulrush) weedkilling efficacy grade,bulrush [2],"5 (weed kill ratio 90% or more, (practically complete withering))"
same,C (oval-leafed pondweed) weedkilling efficacy grade,oval-leafed pondweed [3],"5 (weed kill ratio 90% or more, (practically complete withering))"
same,a (transplanted rice) effect on crop grade,transplanted rice,"4 (weed kill ratio 70% or more, less than 90%)"
same,A (barnyard grass) weedkilling efficacy grade,barnyard grass [4],"5 (weed kill ratio 90% or more, (practically complete withering))"
same,B (bulrush) weedkilling efficacy grade,bulrush [5],"5 (weed kill ratio 90% or more, (practically complete withering))"
same,C (oval-leafed pondweed) weedkilling efficacy grade,oval-leafed pondweed [6],"5 (weed kill ratio 90% or more, (practically complete withering))"
same,D (crabgrass) weedkilling efficacy grade,crabgrass [7],"5 (weed kill ratio 90% or more, (practically complete withering))"
same,E (green foxtail) weedkilling efficacy grade,green foxtail [8],"5 (weed kill ratio 90% or more, (practically complete withering))"
same,F (barnyard grass) weedkilling efficacy grade,barnyard grass [9],"5 (weed kill ratio 90% or more, (practically complete withering))"
same,G (wild oat) weedkilling efficacy grade,wild oat [10],"5 (weed kill ratio 90% or more, (practically complete withering))"
same,H (black-grass) weedkilling efficacy grade,black-grass [11],"5 (weed kill ratio 90% or more, (practically complete withering))"
same,I (Italian ryegrass) weedkilling efficacy grade,Italian ryegrass [12],"5 (weed kill ratio 90% or more, (practically complete withering))"
same,J (common wind-grass) weedkilling efficacy grade,common wind-grass [13],"5 (weed kill ratio 90% or more, (practically complete withering))"
same,K (Indian mallow) weedkilling efficacy grade,Indian mallow [14],"4 (weed kill ratio 70% or more, less than 90%)"
same,L (redroot pigweed) weedkilling efficacy grade,redroot pigweed [15],"3 (weed kill ratio 40% or more, less than 70%)"
same,M (fig-leafed goosefoot) weedkilling efficacy grade,fig-leafed goosefoot [16],"4 (weed kill ratio 70% or more, less than 90%)"
same,N (chickweed) weedkilling efficacy grade,chickweed [17],"4 (weed kill ratio 70% or more, less than 90%)"
same,P (birds-eye speedwell) weedkilling efficacy grade,birds-eye speedwell [18],"5 (weed kill ratio 90% or more, (practically complete withering))"
same,b (directly sown rice) effect on crop grade,directly sown rice [19],"4 (weed kill ratio 70% or more, less than 90%)"
same,c (corn) effect on crop grade,corn [20],"1 (weed kill ratio 5% or more, less than 20%)"
same,d (soybean) effect on crop grade,soybean [21],0 (weed kill ratio 5% or less (practically no effect))
same,e (wheat) effect on crop grade,wheat [22],0 (weed kill ratio 5% or less (practically no effect))
same,f (beet) effect on crop grade,beet [23],"4 (weed kill ratio 70% or more, less than 90%)"
same,g (rapeseed) effect on crop grade,rapeseed [24],"4 (weed kill ratio 70% or more, less than 90%)"
same,D (crabgrass) weedkilling efficacy grade,crabgrass [25],"5 (weed kill ratio 90% or more, (practically complete withering))"
same,E (green foxtail) weedkilling efficacy grade,green foxtail [26],"5 (weed kill ratio 90% or more, (practically complete withering))"
same,F (barnyard grass) weedkilling efficacy grade,barnyard grass [27],"5 (weed kill ratio 90% or more, (practically complete withering))"
same,G (wild oat) weedkilling efficacy grade,wild oat [28],"3 (weed kill ratio 40% or more, less than 70%)"
same,H (black-grass) weedkilling efficacy grade,black-grass [29],"5 (weed kill ratio 90% or more, (practically complete withering))"
same,I (Italian ryegrass) weedkilling efficacy grade,Italian ryegrass [30],"5 (weed kill ratio 90% or more, (practically complete withering))"
same,J (common wind-grass) weedkilling efficacy grade,common wind-grass [31],"5 (weed kill ratio 90% or more, (practically complete withering))"
same,K (Indian mallow) weedkilling efficacy grade,Indian mallow [32],"5 (weed kill ratio 90% or more, (practically complete withering))"
same,L (redroot pigweed) weedkilling efficacy grade,redroot pigweed [33],"4 (weed kill ratio 70% or more, less than 90%)"
same,M (fig-leafed goosefoot) weedkilling efficacy grade,fig-leafed goosefoot [34],"4 (weed kill ratio 70% or more, less than 90%)"
same,N (chickweed) weedkilling efficacy grade,chickweed [35],"4 (weed kill ratio 70% or more, less than 90%)"
same,O (catchweed) weedkilling efficacy grade,catchweed,"5 (weed kill ratio 90% or more, (practically complete withering))"
same,P (birds-eye speedwell) weedkilling efficacy grade,birds-eye speedwell [36],"4 (weed kill ratio 70% or more, less than 90%)"
same,b (directly sown rice) effect on crop grade,directly sown rice [37],"4 (weed kill ratio 70% or more, less than 90%)"
same,c (corn) effect on crop grade,corn [38],"3 (weed kill ratio 40% or more, less than 70%)"
same,d (soybean) effect on crop grade,soybean [39],"4 (weed kill ratio 70% or more, less than 90%)"
same,e (wheat) effect on crop grade,wheat [40],0 (weed kill ratio 5% or less (practically no effect))
same,f (beet) effect on crop grade,beet [41],"4 (weed kill ratio 70% or more, less than 90%)"
same,g (rapeseed) effect on crop grade,rapeseed [42],"4 (weed kill ratio 70% or more, less than 90%)"
